Data as given in US20190380986A1, “METHOD FOR PRODUCING EXTRACTS ENRICHED WITH SULFOXIDE-FREE ORGANOSULFUR COMPOUNDS, S-ALKENYL-LCYSTEINE AND S-ALKYL-LCYSTEINE, FROM PLANT RAW MATERIALS, AND USES THEREOF IN THE TREATMENT OF INFLAMMATORY DISEASES” (CANVAX BIOTECH, S.L, priority 2017, published 2019).
“Also recorded” adds a separate entry of the source. Where a name gives a salt, the structure may show the parent alone.

Experiments:
Format in all cases: in vivo, Dark Agouti rats
[1] = tested on: LBP (lipopolysaccharide binding protein); experiment: Soluble LBP levels (ELISA) in brain, spinal cord and blood of EAE rats; settings: authors' observation in the background section
Experimental: (§1) 70 Dark Agouti rats, 35 females and 35 males, were used. Each group of 10 animals had 5 male rats housed in individual boxes and 5 females equally maintained in individual boxes. The following groups were included: i) Controls (untreated healthy animals); ii) vehicle (animals injected in the tail with 100 microlitres of Freund's complete adjuvant (FCA) but without the EAE-inducing peptide, the MOG peptide; iii) EAE (animals injected 1 time in the tail with 150 μg of MOG (Sigma-Aldrich) in 100 microlitres of FCA); iv) EAE+N-acetyl cysteine at 18 mg/kg (EAE+NAC18); v) EAE+N-acetyl cysteine at 50 mg/kg (EAE+NACSO); vi) EAE+SAC at 18 mg/kg (EAE+SAC18) and vii) EAE+SAC at 50 mg/kg (EAE+SAC50). The treatments with NAC and SAC were administered to the animals orally 5 days a week at a dose of 18 mg/kg or 50 mg/kg of the animal's weight. […]
(§2) The measurement of lipopolysaccharide-binding soluble lipoprotein (LBP) levels was performed with the LBP soluble ELISA Kit (Enzo®, USA), in a sandwich ELISA system following the manufacturer's instructions. The levels of lipopolysaccharide (LPS) in blood and spinal cord were measured with the Pierce LAL Chromogenic endotoxin quantification kit supplied by Thermo Scientific (USA), following the manufacturer's instructions.® The data are presented as endotoxin units per milligram of tissue protein.

[2] = tested on: GSH/GSSG ratio and lipoperoxides (LPO); experiment: Biomarkers of oxidative stress (LPO, GSH/GSSG ratio) in brain and spinal cord of EAE rats; settings: FIG. 4; for GSH/GSSG ratio in brain and spinal cord: Example 3, end of study (35 days), NAC and SAC oral 50 mg/kg, versus untreated EAE
Excerpt: (§3) 70 Dark Agouti rats were used, 35 females and 35 males. Each group of 10 animals had 5 male rats housed in individual boxes and 5 females equally maintained in individual boxes. The following groups were included: i) Controls (untreated healthy animals); ii) vehicle (animals injected in the tail with 100 microlitres of Freund's complete adjuvant (FCA) but without the EAE-inducing peptide, the MOG peptide ([…]); iii) EAE (animals injected once into the tail with 150 μg of MOG (Sigma-Aldrich) in 100 microlitres of FCA); iv) EAE+dimethyl fumarate (EAE+DMF); v) EAE+N-acetyl cysteine (EAE+NAC); and vi) EAE+SAC. The treatments with NAC and SAC were administered to the animals orally using a probe and at a dose of 50 mg/kg of animal weight.
At the end of the study, the animals were decapitated at a controlled temperature using intraperitoneal anaesthesia with ketamine 75 mg/kg (Imalgene 100 mg/ml, Merial Laboratories, Barcelona, Spain). The brains, blood and spinal cord were extracted, weighed and homogenized with a mechanical homogenizer (Tempest Virtis), using 20 mM Tris at pH 7.4 as a buffer. The samples were centrifuged cold and the supernatants were immediately collected and stored at −80° C.
Total protein levels were quantified by the Bradford method and referenced to the original tissue weight. Oxidative stress parameters such as lipid peroxidation (LPO), total glutathione (tG) and reduced glutathione (GSH) were then measured in blood, brain and spinal cord using kits from Bioxytech SA (Oxis International, Portland, Oreg., USA): LPO-586, GSH-420 and GSH-400, respectively. Oxidised glutathione levels (GSSG) were calculated by subtracting reduced glutathione from total glutathione and the GSH/GSSG ratio was calculated.
(§4) The statistical analysis was performed with the SPSS program (SPSS Ibérica, Madrid, Spain). The data are reported as mean±standard deviation (SD). […] To analyse the correlation between the biochemical parameters and the mobility of the animals at 35 days (Clinical assessment-35), Spearman's rho correlation coefficient was used. The level of statistical significance was established at p<0.05.

[3] = tested on: EAE (experimental autoimmune encephalomyelitis); experiment: Clinical assessment of mobility in rats with EAE induced by MOG/FCA; settings: for Change in the clinical assessment of mobility between day 35 and day 14: Example 3, NAC and SAC oral 50 mg/kg, treatment for 21 days, FIG. 3; for Change in the clinical assessment of mobility between days 35 and 14: FIG. 5
Experimental: Next, an experiment was designed to study the effect of SAC in rats with EAE (experimental autoimmune encephalomyelitis), a model of multiple sclerosis widely used for the development of new treatments for this neurodegenerative disease in humans. To evaluate the effect of this compound on the disease, the change in clinical parameters of mobility in each of the joints and in the tail (clinical score or clinical assessment) was measured, as well as the biomarkers of oxidative stress that explain the change in joint mobility in rats.
as §3
The mobility of the rats was evaluated using the method described by Pérez-Nievas (Pérez-Nievas, 2010) in which 0 is equivalent to not having any affected joint or tail; 1 equals paralysis in the tail; 2 equals partial mobility in the hind legs; 3 equals paralysis in the hind legs; 4 equals paralysis in the hind legs and partial mobility in the front legs and 5 equals a dying animal or that must be sacrificed for ethical reasons.
as §4
Next, an experiment was designed to study whether the effect of NAC and SAC were different depending on the dose administered in animal models of EAE. For this, the change in clinical parameters of mobility in each of the joints and the tail (clinical score or clinical assessment) was measured at 2 different doses of NAC and SAC; 18 mg/kg and 50 mg/kg administered orally for 5 days a week and following the same experimental design as Example 3.
70 Dark Agouti rats, 35 females and 35 males, were used. Each group of 10 animals had 5 male rats housed in individual boxes and 5 females equally maintained in individual boxes. The following groups were included: i) Controls (untreated healthy animals); ii) vehicle (animals injected in the tail with 100 microlitres of Freund's complete adjuvant (FCA) but without the EAE-inducing peptide, the MOG peptide; iii) EAE (animals injected 1 time in the tail with 150 μg of MOG (Sigma-Aldrich) in 100 microlitres of FCA); iv) EAE+N-acetyl cysteine at 18 mg/kg (EAE+NAC18); v) EAE+N-acetyl cysteine at 50 mg/kg (EAE+NACSO); vi) EAE+SAC at 18 mg/kg (EAE+SAC18) and vii) EAE+SAC at 50 mg/kg (EAE+SAC50). The treatments with NAC and SAC were administered to the animals orally 5 days a week at a dose of 18 mg/kg or 50 mg/kg of the animal's weight.
The analysis of the mobility of the animals, their sacrifice, tissue management, determination of the total proteins and the statistical analysis, was carried out as previously described in Example 3.

[4] = tested on: LPS (bacterial lipopolysaccharide); experiment: LPS levels (LAL chromogenic endotoxin kit) in blood and spinal cord of EAE rats; settings: Example 4, 50 mg/kg orally, SAC compared to NAC at the same concentration, FIG. 7
Experimental: as §1, §2

[5] = Example 4, 18 mg/kg orally 5 days a week
[6] = Example 4, 50 mg/kg orally 5 days a week

| SMILES | Level of LBP after administration in animal models (pro-inflammatory effect) [1] | GSH/GSSG ratio in brain and spinal cord [2] | Change in the clinical assessment of mobility between day 35 and day 14 [3] | Change in the clinical assessment of mobility between days 35 and 14 [3, 5] | Change in the clinical assessment of mobility between days 35 and 14 [3, 6] | Levels of LPS in blood and spinal cord [4] | Oxidative damage induced by MOG/FCA (LPO, GSH/GSSG), SAC compared with NAC ([2]; Example 3, oral 50 mg/kg, 35 days) |
| --- | --- | --- | --- | --- | --- | --- | --- |
| CC(=O)N[C@@H](CS)C(=O)O [NAC, N-acetylcysteine] | the level of LBP (lipopolysaccharide binding protein) increases | increased the GSH/GSSG ratio with respect to untreated animals (EAE); also recorded: induces an increase in the GSH/GSSG ratio | showed a reduction of the clinical assessment of mobility between day 35 and 14 | did not cause a reduction of the clinical assessment of mobility between days 35 and 14 | equally effective with respect to the group of animals with EAE without treatment |  |  |
| COC(=O)/C=C/C(=O)OC [DMF, dimethyl fumarate] |  | increased the GSH/GSSG ratio with respect to untreated animals (EAE); also recorded: induces an increase in the GSH/GSSG ratio | showed a reduction of the clinical assessment of mobility between day 35 and 14 |  |  |  |  |
| C=CCSC[C@H](N)C(=O)O [SAC, S-allyl-L-cysteine] |  | increased the GSH/GSSG ratio with respect to untreated animals (EAE); also recorded: induces an increase in the GSH/GSSG ratio | showed a reduction of the clinical assessment of mobility between day 35 and 14 | caused a reduction in the clinical assessment of mobility equivalent to that caused by 50 mg/kg of NAC or SAC | equally effective with respect to the group of animals with EAE without treatment | significantly reduced the levels of LPS in blood and spinal cord compared to NAC | more effective than NAC in minimising oxidative damage induced by MOG/FCA; also recorded: corrects the oxidative damage induced by MOG/FCA to a higher percentage than the NAC |
